Key:
[1] = Plasma concentration-time profile of RTV and metabolites; assay type: in vivo; conditions: human, 400 mg bid
CYP2D6 = CYP2D6 (Homo sapiens, UniProt P10635); conditions: CYP2D6, R2 formation; ref [6], [34]; cited from earlier work
CYP3A4 = conditions: ref [27] [11]; cited from earlier work
CYP2J2 [2] = biological target: T1, CYP2J2 (Homo sapiens, UniProt P51589); conditions: CYP2J2, linear scaled according to kinact/KI (SCHH approach)
T1 sequence (P51589 1-502): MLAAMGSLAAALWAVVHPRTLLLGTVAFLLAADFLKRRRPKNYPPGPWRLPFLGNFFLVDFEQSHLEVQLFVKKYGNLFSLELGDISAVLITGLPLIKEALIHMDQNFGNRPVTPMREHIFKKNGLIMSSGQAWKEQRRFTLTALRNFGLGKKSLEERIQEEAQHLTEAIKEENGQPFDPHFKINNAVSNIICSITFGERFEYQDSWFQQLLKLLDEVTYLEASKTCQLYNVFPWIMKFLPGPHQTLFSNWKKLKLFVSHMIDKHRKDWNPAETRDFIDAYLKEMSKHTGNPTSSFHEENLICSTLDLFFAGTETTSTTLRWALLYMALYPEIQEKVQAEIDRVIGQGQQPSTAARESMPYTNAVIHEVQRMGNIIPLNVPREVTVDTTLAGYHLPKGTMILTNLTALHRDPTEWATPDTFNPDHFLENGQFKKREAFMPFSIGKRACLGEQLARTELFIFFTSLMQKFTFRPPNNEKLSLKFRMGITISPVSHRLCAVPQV

CYP2J2 [3] = conditions: projected; ref [14]; cited from earlier work
CYP2J2 [4] = biological target: T1, CYP2J2; experiment: in vitro; conditions: recombinant enzyme

CYP2D6, sequence (P10635 whole entry): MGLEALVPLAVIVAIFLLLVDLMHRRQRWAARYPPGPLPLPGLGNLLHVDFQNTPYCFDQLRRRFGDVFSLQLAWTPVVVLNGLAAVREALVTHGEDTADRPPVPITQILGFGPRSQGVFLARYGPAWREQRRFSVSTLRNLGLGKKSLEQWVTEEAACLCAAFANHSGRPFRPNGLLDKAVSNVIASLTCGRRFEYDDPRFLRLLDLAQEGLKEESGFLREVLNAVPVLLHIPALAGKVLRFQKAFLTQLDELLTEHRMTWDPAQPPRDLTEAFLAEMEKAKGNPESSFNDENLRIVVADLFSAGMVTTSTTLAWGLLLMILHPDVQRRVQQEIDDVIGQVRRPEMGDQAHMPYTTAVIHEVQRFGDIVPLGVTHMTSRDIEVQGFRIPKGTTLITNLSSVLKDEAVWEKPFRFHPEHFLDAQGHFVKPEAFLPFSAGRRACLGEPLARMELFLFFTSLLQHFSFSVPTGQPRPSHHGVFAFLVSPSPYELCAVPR

CC(C)c1nc(CN(C)C(=O)N[C@H](C(=O)N[C@@H](Cc2ccccc2)C[C@H](O)[C@H](Cc2ccccc2)NC(=O)OCc2cncs2)C(C)C)cs1 [RTV, Ritonavir]
Cmax [1]: 4.8 µM | Km (CYP2D6): 1.6 µM | slope at 1 μM (CYP3A4): 0.17 ^2 μM min^-1 | slope at 1 μM (CYP2J2 [2]): 0.0044 ^4 μM min^-1

CC(C)(C)c1ccc(C(=O)CCCN2CCC(OC(c3ccccc3)c3ccccc3)CC2)cc1 [ebastine]
contribution of CYP2J2 to intestinal ebastine hydroxylation (CYP2J2 [3]): ≤ 70%

C#C[C@]1(O)CC[C@H]2[C@@H]3CCC4=Cc5oncc5C[C@]4(C)[C@H]3CC[C@@]21C [danazol]
inhibition at 5 min (CYP2J2 [4]): 95%

— article PMC4169885 (Biochemical pharmacology, 2014)
